Data on six compounds can be found in article PMC12346198 (Cancers, 2025).

Counter-ions that a name gives are not always drawn. Like-named read-outs stand apart in the source and are kept apart here.

For data set [1], the system named is THLE-2. In words: CCK-8 cytotoxicity assay, THLE-2. Conditions: Homo sapiens, 72 h treatment. Format: cell-based. The procedure:
(§1) The cytotoxicity of compounds was determined by the CCK-8 assay (Cell Counting Kit-8, CK04, Dojindo Molecular Technologies, Kumamoto, Japan). Cell lines were plated at 10,000 cells/well in 96-well plates and incubated overnight to allow for adherence (5% CO2, 37 °C). […] Cells were placed back in the incubator for 72 h treatment. CCK-8 reagent was added, and plates were further incubated 1–4 h as directed by the supplier’s instructions. Optical density was measured using a Biotek Synergy H1 plate reader at 450 nm. Primary hepatocytes were plated at 30,000 cells or 50,000 cells/well and maintained according to the technical information bulletin provided by the supplier. Upon treatment, maintenance media were supplemented with 10% FBS and fresh test compound for all subsequent media changes, as directed.

For data set [2], the system named is HepG2. The data set is described as follows: CCK-8 cytotoxicity assay, HepG2. Type of data set: cell-based, human. The note with it: Homo sapiens, HepG2, 72 h, 72 h treatment. The procedure: as §1
Data set [3] relates to Primary Male Hepatocytes. In words: CCK-8 cytotoxicity assay, primary male hepatocytes. The note with it: Hepatocyte, 72 h, 72 h treatment. Format: cell-based. The procedure: as §1
For data set [4], the system named is SNU423. In words: CCK-8 cytotoxicity assay, SNU423. Type of data set: cell-based. The note with it: Homo sapiens, SNU-423, 72 h treatment. The procedure: as §1
In data set [5] the test system is SNU475. The data set is described as follows: CCK-8 cytotoxicity assay, SNU475. Format: cell-based, human. Conditions: 72 h treatment. On the procedure: as §1
Data set [6] in a line: Single-dose IV and PO pharmacokinetics in mice. Type of data set: in vivo, male C57BL/6 mice. Conditions: for Oral bioavailability compared to parent compound: Figure S5D; for Expected plasma levels for up to 8 h post-dose: linearly scaled from PK data, BID 75 mg/kg niclosamide, 105.7 mg/kg valine–niclosamide, 87.3 mg/kg valine–compound #7, 62.9 mg/kg compound #7; for AUC: analyte = dosed compound; for Cmax: read-out: Cmax, Geo Mean; for Tmax: read-out: Tmax, Geo Mean; for clearance: single IV dose, 2 mg/kg or molar equivalent, read-out: Systemic clearance following an IV dose (converted). The procedure:
The in-life study and quantitative analysis of plasma samples using LC/MS were performed at Charles River Laboratories, Inc. (Wilmington, MA, USA).

A short description of data set [7]: Two-week tolerability study. Conditions: daily PO for 14 days.
Method: Mice were group-housed under conditions of a constant photoperiod (12 h light/12 h dark), temperature, and humidity with ad libitum access to water and standard pelleted chow. […] Control mice were treated with the vehicle (DMSO–Cremophor EL–water, 3:15:82 by volume). Treatments were administered PO by gavage once daily for 14 days. Mouse weights were measured every 2 days. At the study endpoint, mice were euthanized approximately 2–4 h after the last dose. Blood was collected by cardiac puncture immediately after CO2 euthanasia. At necropsy, carcasses were examined for grossly visible lesions, and organ weights were measured (liver, kidneys, spleen, urogenital tract, testes, heart, lungs, brain). Whole blood and serum were submitted to the Comparative Pathology and Digital Imaging Shared Resource at the Ohio State Comprehensive Cancer Center (OSUCCC, Columbus, OH, USA) for the determination of complete blood counts and serum chemistry.
Data set [8] can be described thus: Pharmacokinetic modeling of valine pro-drug conversion to parent. Conditions: for k el: C57BL/6, mouse, plasma, model estimate, read-out: Kel, elimination rate constant of valine conjugate (converted); for Kmet, rate constant of conversion to parent compound: Kmet = Fm × Kel; for Fraction of pro-drug converted to parent (Fm): two-compartment model estimate. Type of data set: in vivo, mice. The source says:
A total of 36 mice with available PK data were included for non-linear mixed-effects analysis using NONMEM (version 7.5.0, ICON Development Solutions, Ellicott City, MD, USA), implementing the first-order conditional estimation with interaction (FOCE-I). R (version 4.2.0, R Foundation for Statistical Computing, Vienna, AUT, http://www.r-project.org) was used for visual diagnostics. […] The analyte (valine conjugate and parent compound) plasma concentration–time data were confirmed to have a biphasic distribution and elimination and were therefore fit separately to a linear two-compartment model with a depot for oral administration. Each model was parametrized in terms of clearance (CL), the volume of distribution of the central compartment (V1), intercompartmental clearance (Q), and the volume of the peripheral compartment (V3). Interindividual variability (IIV) for each parameter was assumed to be log-normally distributed, and residual variability (RUV) was described with a proportional error model. The PK parameter estimates from these independent models (parent compound or valine conjugate) were used as initial estimates for a combined model describing the conversion and disposition of the valine conjugate to the parent drug and associated metabolites. The model estimated the fraction of pro-drug converted to parent drug (Fm), which was used to calculate the first-order rate constant of metabolite formation (Kmet) = Fm × Kel. This rate constant was used to calculate the half-life of the conversion process and the amount of metabolite formed at complete conversion. The rate of metabolite formation was then calculated as the ratio of the amount of metabolite formed to the time required for complete conversion (~5 half-lives), as detailed in Figures S8–S11.

The subject of data set [9] is SNU475 cells. In words: Hollow fiber assay (HFA) model of AR-SV HCC. Format: in vivo. The note with it: for Cell viability within hollow fibers (MTT assay): BID PO one week, niclosamide 75, valine–niclosamide 106.1, valine–compound #7 87.3, compound #7 62.9 mg/kg, nude mice. The source says: The hollow fiber procedures were based upon those developed by Hollingshead et al. with technical consultation kindly provided by Drs. Joanna Burdette and Dan Lantvit (University of Illinois Chicago, Chicago, IL, USA). […] In order to utilize a PO dosing approach with the HFA, we extended the traditional HFA timeline to establish angiogenesis, as noted in the literature. […] Hollow fibers (KrosFlo Implant Membranes, M138615, Repligen, Waltham, MA, USA) were filled with 3 × 10^6 SNU475 cells/mL per length and heat-sealed into 2 cm lengths on Day −1. On Day 0, three fibers were implanted into 20-week-old male outbred homozygous athymic nude mice (Foxn1^nu/Foxn1^nu, The Jackson Laboratory, Bar Harbor, ME, USA) subcutaneously parallel to the spine. Following a 14-day waiting period to allow for angiogenesis around the fibers, treatment was initiated. […] On Day 21, mice were euthanized and hollow fibers were explanted. The MTT assay was performed according to the KrosFlo Implant Membrane protocol utilizing Thiazolyl Blue Tetrazolium Bromide (M2128, MilliporeSigma, Burlington, MA, USA).

The conditions of data set [10]: cited from earlier work.
Setting [11] is: IV, 2 mg/kg (valine conjugates 2 mg/kg EQV).
The mark [12] stands for this setting: IV, 2 mg/kg (valine conjugates 2 mg/kg EQV), non-compartmental analysis.
Setting [13] is: PO, 40 mg/kg (valine conjugates 40 mg/kg EQV).
Where [14] appears, read: male, C57BL/6, mouse, plasma, iv, 2 mg/kg, IV, 2 mg/kg (valine conjugates 2 mg/kg EQV), non-compartmental analysis, read-out: AUCall, Geo Mean.
The mark [15] stands for this setting: male, C57BL/6, mouse, plasma, iv, 2 mg/kg, IV, 2 mg/kg (valine conjugates 2 mg/kg EQV).
The mark [16] stands for this setting: male, C57BL/6, mouse, plasma, po, 40 mg/kg, PO, 40 mg/kg (valine conjugates 40 mg/kg EQV), non-compartmental analysis, read-out: AUCall, Geo Mean.
The mark [17] stands for this setting: male, C57BL/6, mouse, plasma, po, 40 mg/kg, PO, 40 mg/kg (valine conjugates 40 mg/kg EQV).
Setting [18] is: male, C57BL/6, mouse, plasma, po, 40 mg/kg, single PO dose, 40 mg/kg or molar equivalent, read-out: AUCall following an oral dose.
Setting [19] is: male, C57BL/6, mouse, plasma, IV, 2 mg/kg (valine conjugates 2 mg/kg EQV).
[20] abbreviates: male, C57BL/6, mouse, plasma, PO, 40 mg/kg (valine conjugates 40 mg/kg EQV).

As to `CNC(=O)c1cc(Oc2ccc(NC(=O)Nc3ccc(Cl)c(C(F)(F)F)c3)cc2)ccn1` [Sorafenib, sorafenib], the concentration for half-maximal inhibition (IC50) in data set [1] is more than 30 µM; in data set [2], 10.8 µM; in [3] it was 5.1 µM; in [4], 6.1 µM; in data set [5], 4.2 µM; in [5] (Homo sapiens, SNU-475, 72 h), 4 µM.

As to `CC(C)[C@H](N)C(=O)Oc1ccc(Cl)cc1C(=O)Nc1ccc([N+](=O)[O-])cc1Cl` [valine–niclosamide], in data set [6], the “Oral bioavailability compared to parent compound” value is “significantly higher oral bioavailability” and the “Expected plasma levels for up to 8 h post-dose” value is approximately 3.5 µM. In addition, the “HL_Lambda_z, Geo Mean” value in data set [6] (setting [11]) came out at 1.54 h. Also, the “IV: Clobs, Geo Mean” value in data set [6] (setting [12]) stood at 0.02 L/h. For the same compound, in data set [6] (PO), the “Fold improvement in Cmax over orally administered niclosamide” value was found to be 6.8 fold and the “Fold increase in systemic exposure over orally administered niclosamide” value was 14.9 fold. Also, in data set [6] (setting [13]), the “HL_Lambda_z, Geo Mean” value worked out at 4.11 h and the “PO: Cl_Fobs, Geo Mean” value turned out to be 0.05 L/h. In addition, the “Fold increase in plasma levels at 4 h over niclosamide” value in data set [6] (PO, molar equivalent of 40 mg/kg) is given as “more than 16 fold”. Moreover, in data set [6] (setting [14]), the AUC worked out at 7.52 µM·h. Besides, in data set [6] (setting [15]), the Cmax is 11.2 µM. In [6] (setting [16]), the AUC is 48.6 µM·h. Besides, the Cmax in data set [6] (setting [17]) stood at 11.2 µM. The AUC in [6] (setting [18]) was determined as 48.6 µM·h. Also, in data set [6] (male, C57BL/6, mouse, plasma, po, 40 mg/kg, read-out: Plasma level at 4 h after a molar equivalent oral dose), the concentration at 4 h is 3.59 µM. For the same compound, the time of peak concentration (Tmax) in data set [6] (setting [19]) worked out at 4.8 min. Moreover, the time of peak concentration (Tmax) in [6] (setting [20]) stood at 40.2 min. The clearance in [6] (male, C57BL/6, mouse, plasma) is 0.333 mL/min. Moreover, the “Impact on body weight” value in data set [7] (14.1, 56.4, 141.0 mg/kg) is listed as “no significant impact”. Also, the “Impact on liver enzyme levels” value in data set [7] (ALT, AST, albumin) is on record as “no significant impact”. In addition, in [7] (versus vehicle), the “Spleen weights as a percentage of body weight” value is reported as “increase at the highest dose level”. In addition, in [8], the k el was 0.000789 s⁻¹; the “Kmet, rate constant of conversion to parent compound” value was 0.64 h⁻¹; the “Fraction of pro-drug converted to parent (Fm)” value is given as 23%. Further, the “Cell viability within hollow fibers (MTT assay)” value in [9] was “no differences in cell viability”.

Consider `CC(C)[C@H](N)C(=O)Oc1ccc(Cl)cc1C(=O)Nc1ccc(C(F)(F)F)cc1Cl` [valine–compound #7], for which the “Oral bioavailability compared to parent compound” value in data set [6] is recorded as “this was not observed”. Further, the “HL_Lambda_z, Geo Mean” value in data set [6] (setting [11]) is 4.20 h; in [6] (setting [13]), 6.46 h. Further, the “IV: Clobs, Geo Mean” value in data set [6] (setting [12]) worked out at 0.01 L/h. For the same compound, in [6] (setting [13]), the “PO: Cl_Fobs, Geo Mean” value is 0.05 L/h. In addition, the “Expected plasma levels for up to 8 h post-dose” value in data set [6] worked out at 3.7 µM. Also, the AUC worked out at 13.5 µM·h in data set [6] (setting [14]), 62.1 µM·h in [6] (setting [16]) and 62.1 µM·h in data set [6] (setting [18]). In addition, the figures for the peak concentration (Cmax) in data set [6] (setting [15]) and in data set [6] (setting [17]) were 10.1 µM and 7.71 µM, respectively. In addition, the time of peak concentration (Tmax) in data set [6] (setting [19]) was determined as 4.8 min; in [6] (setting [20]), 75.6 min. The clearance in [6] (male, C57BL/6, mouse, plasma) was 0.167 mL/min. Moreover, the k el in data set [8] was 0.00147 s⁻¹. Besides, in data set [8], the “Kmet, rate constant of conversion to parent compound” value was found to be 1.32 h⁻¹. In data set [8], the “Fraction of pro-drug converted to parent (Fm)” value is given as 25%. For the same compound, in [9] (87.3 mg/kg BID PO, two mice excluded), the “Toxicity in HFA study mice” value is reported as “apparent toxicity”. Besides, the “Cell viability within hollow fibers (MTT assay)” value in [9] was “no differences in cell viability”.

Take `O=C(Nc1ccc([N+](=O)[O-])cc1Cl)c1cc(Cl)ccc1O` [NEN, niclosamide ethanolamine salt]: the “Plasma niclosamide concentration 4 h after oral administration” value in data set [10] (40 mg/kg dose PO) is reported as “roughly 0.72 µM”. For the same compound, in data set [10] (4 h after oral administration), the “Improvement of plasma niclosamide concentration over niclosamide” value is “more than seven-fold”.

Consider `COc1cc2nccc(Oc3ccc(NC(=O)NC4CC4)c(Cl)c3)c2cc1C(N)=O` [Lenvatinib, lenvatinib], for which the half-inhibitory concentration (IC50) in [1] was 25.1 µM; in [2] it was more than 30 µM; in [3], more than 30 µM; in [4], more than 30 µM; in [5] (Homo sapiens, SNU-475, 72 h), 13 µM.

For the compound `CNC(=O)c1cc(Oc2ccc(NC(=O)Nc3ccc(Cl)c(C(F)(F)F)c3)c(F)c2)ccn1` [Regorafenib, regorafenib], the half-maximal inhibitory concentration (IC50) is more than 30 µM in data set [1]; 11.9 µM in data set [2]; more than 30 µM in data set [3]; 5.5 µM in [4]; 1.63 µM in data set [5]; 1.6 µM in data set [5] (Homo sapiens, SNU-475, 72 h).
